Patent publication US20250059165A1, “PIPERIDINYLPYRIDINYLCARBONITRILE DERIVATIVES AS INHIBITORS OF GLUTAMINYL-PEPTIDE CYCLOTRANSFERASE AND GLUTAMINYL-PEPTIDE CYCLOTRANSFERASE LIKE PROTEIN” (Boehringer Ingelheim International GmbH, priority 2023, published 2025)

Experiments:
[1] = tested on: SIRPα signalling induced by A549 cells; assay: Assay B: SIRPα signalling assay using A549 cells; format: cell-based; conditions: Homo sapiens, 48 h compound incubation, Jurkat PathHunter SIRPαV1 reporter cells, read-out: Inhibition of SIRPα signalling induced by A549 cells: IC50
Experimental: (§1) Two cell types are independently used: the Raji cell line (lymphoblast-like human cell line derived from B lymphocytes from a Burkitt's lymphoma patient in 1963) and A549 cells (adenocarcinomic human alveolar basal epithelial cells).
(§2) Test compounds were dissolved in 100% DMSO and serially diluted into a white 384-well microtiter cell culture plate (PerkinElmer #60076780 in case of Raji assay; PDL-coated plates Greiner #781945 in case of A549 assay). 5000 Raji cells (ATCC #CC86) or 5000 A549 cells (ATCC #CCL-185) in Assay Complete Cell Plating reagent 30 (DiscoverX 93-0563R30B) were added per well. The assay plate was incubated for 48 h at 37° C., 95% humidity and 5% CO2. 15000 reporter cells (Jurkat PathHunter SIRPαV1, DiscoverX #93-1135C19) were added to each well, and the plate was incubated for 5 h at 37° C., 95% humidity and 5% CO2. Bioassay reagent 1 of the PathHunter Bioassay detection kit (DiscoverX 93-0001) was added to each well of the plate using a multichannel pipette followed by a 15 min incubation at room temperature. Afterwards bioassay reagent 2 was added followed by […] incubation at room temperature (incubation in the dark). The analysis of the data was performed using the luminescence signal generated by beta-galactosidase in the PathHunter reporter cell line. The luminescence measurement was done using a Pherastar Multi-Mode Reader. Dose-response curves & IC50 data were calculated with 4-parameter sigmoidal dose response formula.

[2] = Assay C: permeability in CACO-2 cells; format: in vitro ADME; conditions: human, pH 7.2; for efflux ratio: Caco-2, Permeability B-A/Permeability A-B; for Papp A→B: Caco-2, apical to basolateral
Experimental: Caco-2 cells (1−2×10^5 cells/1 cm^2 area) are seeded on filter inserts (Costar transwell polycarbonate or PET filters, 0.4 µm pore size) and cultured (DMEM) for 10 to 25 days. Compounds are dissolved in appropriate solvent (like DMSO, 1-20 mM stock solutions). […] The transport solution (TL) is applied to the apical or basolateral donor side for measuring A-B or B-A permeability (3 filter replicates), respectively. Samples are collected at the start and end of experiment from the donor and at various time intervals for up to 2 hours also from the receiver side for concentration measurement by HPLC-MS/MS or scintillation counting. Sampled receiver volumes are replaced with fresh receiver solution. Efflux Ratio (ER)=Permeability B-A/Permeability A-B

[3] = biological target: T1, QPCT (Homo sapiens, UniProt Q16769); assay: Assay A: biochemical QPCT activity assay (MALDI-TOF MS, CD47 peptide substrate); conditions: 0.5 nM enzyme, 20 μM CD47 peptide substrate; read-out: Inhibition of QPCT: IC50
T1 construct: purchased Origine (OriGene) TP700028
T1 sequence (Q16769 29-361): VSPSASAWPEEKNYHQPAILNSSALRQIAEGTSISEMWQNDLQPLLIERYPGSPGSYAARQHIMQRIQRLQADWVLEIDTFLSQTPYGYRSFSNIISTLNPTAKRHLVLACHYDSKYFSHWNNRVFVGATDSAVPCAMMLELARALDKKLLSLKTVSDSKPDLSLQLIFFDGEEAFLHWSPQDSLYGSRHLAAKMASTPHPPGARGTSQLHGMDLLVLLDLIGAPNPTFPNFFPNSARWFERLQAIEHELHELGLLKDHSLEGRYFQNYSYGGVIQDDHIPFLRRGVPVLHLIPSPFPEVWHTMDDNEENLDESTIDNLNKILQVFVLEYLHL
Experimental: (§3) QPCT or QPCTL dependent conversion of N-terminal glutamine to pyroglutamate of CD47 was monitored via MALDI-TOF MS. Test compounds were dissolved in 100% DMSO and serially diluted into clear 1,536-well microtiter plates. […] The plates were incubated for 10 min in a humidified incubator at 24° C. Subsequently, 2.5 μL of CD47 peptide substrate surrogate (^19[…]^33) was added to each well (final concentration: 10 μM for QPCTL/20 μM for QPCT). […] The plates were sealed with an adhesive foil, mixed for 30 s at 1,000 rpm and stored at room temperature until preparation of the MALDI target plates. MALDI target plates were prepared as described previously. […] QPCT or QPCTL activity was monitored by calculating the ratio between product and internal standard signals followed by normalization to high (100% activity) and low (0% activity) controls. Determination of compound potencies was obtained by fitting the dose-response data to a four-parameter logistical equation.

[4] = biological target: T2, QPCTL (Homo sapiens, UniProt Q9NXS2); assay: Assay A: biochemical QPCTL activity assay (MALDI-TOF MS, CD47 peptide substrate); conditions: 0.5 nM enzyme, 10 μM CD47 peptide substrate; read-out: Inhibition of QPCTL: IC50
T2 construct: made in house
T2 sequence (Q9NXS2 whole entry): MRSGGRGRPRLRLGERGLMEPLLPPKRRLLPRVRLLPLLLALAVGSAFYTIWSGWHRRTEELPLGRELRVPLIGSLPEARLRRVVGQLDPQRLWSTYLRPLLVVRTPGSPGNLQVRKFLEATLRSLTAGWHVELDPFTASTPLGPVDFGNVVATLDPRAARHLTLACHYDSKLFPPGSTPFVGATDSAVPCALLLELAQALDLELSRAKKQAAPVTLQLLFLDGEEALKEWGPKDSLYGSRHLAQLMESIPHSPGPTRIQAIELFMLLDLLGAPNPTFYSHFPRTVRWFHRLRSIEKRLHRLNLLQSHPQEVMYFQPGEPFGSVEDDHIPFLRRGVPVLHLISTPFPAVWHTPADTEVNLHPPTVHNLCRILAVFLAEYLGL
Experimental: as §3

[5] = tested on: SIRPα signalling induced by Raji cells; assay: Assay B: SIRPα signalling assay using Raji cells; format: cell-based; conditions: Homo sapiens, 48 h compound incubation, Jurkat PathHunter SIRPαV1 reporter cells, read-out: Inhibition of SIRPα signalling induced by Raji cells: IC50
Experimental: as §1, §2

IC50 [1] [nM]	efflux ratio [2]	Papp A→B [2] [×10⁻⁶ cm/s]	IC50 [3] [nM]	IC50 [4] [nM]	IC50 [5] [nM]	SMILES
30	6.2	13	2	1	53	Cn1cnnc1C1(F)CCN(c2c(C#N)ccnc2-c2cnc3nc(-c4cccc(Cl)c4)ccn23)CC1 [Example 33]
12	65	0.2	1	1	8	Cn1c(N)nnc1C1CCN(c2ncccc2-c2ccc(F)nc2)CC1 [Prior art Compound 6, reference compound]
